In article PMC9313812, “The Pseudo‐Natural Product Rhonin Targets RHOGDI” (Angewandte Chemie (International Ed. in English), 2022):

Experiments:
NIH/3T3 cells = assay: Wound healing assay (cell migration); format: cell-based; conditions: 10 µM Rhonin; 2 µg/ml RHO inhibitor I; purmorphamine 2 µM
Experimental: Supplementary Figure S13. Influence of 10 µM Rhonin on cell migration in NIH/3T3 cells upon stimulation with purmorphamine (Purm, 2 µM). The RHO inhibitor I was used as a control. Cell migration was monitored by means of a wound healing assay. Data ar e representative of three independent experiments (n=3, N = 3), mean values ± SD. […]
40,000 x g for 30 min at 4°C. Supernatants were collected as cytoplasmic fraction and pellets were resuspended into a homogenization buffer (0.25 M sucrose, 20 mM Tris/HCl pH 7.4, 25 mM KCl, 5 mM MgCl2) and further centrifuged (2 h at 100,000 x g) using an iodixanol (OptiPrep, Axis Shield) gradient solution. Obtained fractions were used for immunoblotting.
NIH/3T3 cells were seeded in a 96 plate (10,000 cell per well/ plate name: Essen Bioscience NO 4379). NIH/3T3 cells were grown till 80% confluence and then serum starved (0 % FCS) for 24 h. […] Cell migration was monitored using IncuCyte ZOOM for a period of 48 h. The images were analyzed by the Incucyte Scratch Wound Analysis Software. […]
GTPase primary antibody (RAC1, CDC42 or RHOA) was added and the tubes and were incubated for 45 min at room temperature. […] Absorption was detected at 490 nm using a plate reader (Tecan Sparks).
Aqueous solubility of compounds was assessed by determination of the kinetic solubility of a test compound in aqueous buffer compared to a solution in organic solvent (acetonitrile). […]

RHOGDI1-RAC1 interaction = molecular target: T1, RHOGDI1-RAC1 interaction (Homo sapiens, UniProt P52565); assay: Fluorescence polarization: titration of TAMRA-GDP-bound RAC1 with RHOGDI1 in presence of compound; format: binding; conditions: Cheng-Prusoff equation using data from Figure S6f
T1 construct: GST; made in house; host or cells: RHOGDI1: E. coli; GerGer-RAC1: insect cells (TNAO38)
T1 sequence (P52565 1-204): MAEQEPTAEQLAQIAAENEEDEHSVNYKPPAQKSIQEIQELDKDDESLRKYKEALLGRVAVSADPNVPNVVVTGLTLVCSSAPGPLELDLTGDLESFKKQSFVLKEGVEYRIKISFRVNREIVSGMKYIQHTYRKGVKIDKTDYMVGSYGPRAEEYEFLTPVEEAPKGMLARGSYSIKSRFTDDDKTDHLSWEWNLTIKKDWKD
Experimental: cilia were stained with an antibody against acetylated tubulin. SMO was marked with an anti-SMO antibody and DAPI was used to stain the nuclei. For quantification of cilia, at least 100 cilia per condition and biological replicate were analyzed for the intensity of anti-acetylated tubulin antibody staining. The results of one representative biological replicate are shown and each data point represents the intensity value of one single cilium. Statistical significance was evaluated using an unpaired t-test with a confidence interval of 95 % (p ≤ n.s.). […]
Label-free quantification (LFQ) intensities were logarithmized (log2) and proteins, which were not three times quantified in at least one of the groups, were filtered off. […]
Fluorescence polarization
The binding of probe 10 to RHOGDI1-3 was confirmed by fluorescence polarization experiments. […] The change in fluorescence polarization was monitored at an excitation / emission wavelengths of 535 nm and 593 nm, respectively. […]
To determine the effect of 7a on the binding of RHOGDI1 to non-prenylated RAC1-GDP, fluorescence polarization measurements were performed by titrating 1 µM TAMRA-GDP-bound RAC1 with increasing concentrations of RHOGDI1 in the presence and absence of 50 µM 7a in buffer containing 30 mM Tris-HCl, pH 7.5, 150 mM NaCl, 5 mM MgCl2, 1% DMSO. […]

In the case of `COC(=O)C1(C(CC(=O)c2cccnc2)c2ccccc2)N=C(c2ccc(Br)cc2)C2C(=O)N(C)C(=O)C21` (centres unmarked) [7l], the “Wound closure / cell migration (in words)” value (NIH/3T3 cells) is reported as “moderately inhibited wound closure” and the Ki (RHOGDI1-RAC1 interaction) is reported as ~2200 nM.
